Reference: US20250041299A1, “THERAPEUTIC TARGETING OF GASTROINTESTINAL STROMAL TUMOR (GIST) BY DISRUPTING THE MENIN-MLL EPIGENETIC COMPLEX” (DANA-FARBER CANCER INSTITUTE, INC., priority 2021, published 2025)
Several values for one entry are separate records, joined by “and”; a condition that tells them apart may be missing. Equal entries are not always repeated.

Experiments:
[1] = system: GIST-T1 cell line xenografts; experiment: GIST-T1 cell line xenograft, tumor volume; assay type: in vivo, mice; conditions: for tumor volume relative to baseline: VTP-50469 0.1% in chow
From the text: (§1) Xenograft Models. The PG27 patient derived xenograft was obtained from a patient undergoing clinically indicated surgery and following written informed consent to a Dana-Farber Cancer Institute IRB-approved research protocol. Cryopreserved tumor or the GIST-T1 cell line mixed 1:1 with matrigel were implanted subcutaneously into 6-week-old female nude mice (NU/NU; Charles River Laboratories). GIST-T1 tested negative for mycoplasma and rodent pathogens (Charles River Laboratories). For in vivo assessment of CRISPR/Cas9)-modified cell line growth. GIST-T1/Cas9 cells were treated with the indicated sgRNAs and selected with puromycin in vitro for 14 days prior to bilateral flank implantation. For drug treatment studies, singly engrafted mice were enrolled into treatment groups when tumors reached approximately 100-200 mm^3 in size, as measured by calipers and determined by the tumor volume equation: […]. […] WM-1119 (50 mg/kg gavage 3 times daily. 7 days per week). VTP-50469 (0.1% in chow) or combination treatments. […] Tumors were dissected and fixed in 10% formalin for corollary studies including H&E staining and immunohistochemistry of sectioned tumors. 4 μm sections were cut from fixed and embedded tumors and stained with Ki-67 (1:400, Cell Signaling Technology Cat #9027) and cleaved caspase-3 (1:250, Cell Signaling Technology Cat #9579). Reactions were developed using DAB (Cell Signaling Technology Cat #8059) or NovaRed (Vector Laboratories Cat #SK-4800) substrate kits per manufacturer recommendations. All procedures were conducted under protocols approved by the Institutional Animal Care and Use Committee at Dana-Farber Cancer Institute.

GIST cells [2] = experiment: Apoptosis and cell death (Annexin V / 7-AAD, Guava Nexin); assay type: cell-based, human; conditions: 8 day treatment; VTP-50469 0.5 μM; combination each drug 0.1 μM
Experimental: Cell cycle and apoptosis. […] Cells were trypsinized, washed in PBS and fixed in 70% ethanol. Propidium iodide at 25 μg/mL (Life Technologies Cat #P1304MP) and RNAse A at 0.2 mg/mL (Thermo Fischer Scientific Cat #EN0531) were used to stain nuclear DNA. Analysis was performed on a Guava easyCyte Flow Cytometer (Luminex Corporation), and single cells were assessed for nuclear content using Guava InCyte software. […] Non-apoptotic cells stain negative for Annexin V and 7-AAD, early apoptotic cells stain positive for Annexin V but negative for 7-AAD and late apoptotic and dead cells stain positive for both Annexin V and 7-AAD. Staining was assayed on a Guava easyCyte Flow Cytometer and data analyzed using Guava InCyte software.

[3] = mouse, in vivo
From the text: as §1, with “Reactions were developed using DAB (Cell Signaling Technology Cat #8059) or NovaRed (Vector Laboratories Cat #SK-4800) substrate kits per manufacturer recommendations. All procedures were conducted under protocols approved by the Institutional Animal Care and Use Committee at Dana-Farber Cancer Institute.” left out

GIST-T1 cells = experiment: Growth over time assay in GIST-T1; assay type: cell-based, human; conditions: GIST-T1; sub-micromolar concentrations; combination each inhibitor at 0.1 μM
From the text: (§2) Cell Culture and Virus Production. All cell lines tested negative for mycoplasma infection on routine surveillance (MilliporeSigma Cat #MP0025-1KT). Human embryonic kidney (HEK) 293 FT (Thermo Fisher Scientific Cat #R70007, RRID: CVCL_6911) and the GIST cell lines GIST-T1 (Cosmo Bio Cat #PMC-GIST01-COS, RRID: CVCL_4976; KIT mutation in exon 11 Δ560-578), GIST430 (RRID: CVCL_7040; KIT mutation in exon 11 Δ560-576), GIST48B (RRID: CVCL_M441: KIT-independent), and GIST882 (RRID: CVCL_7044: KIT mutation in exon 13 K642E) were cultured in Dulbecco's modified Eagle's medium containing 10% FBS, 2 mM L-glutamine, […], and […]. KIT rescue cell lines, which are independent of the KIT enhancer, were generated as previously described (Hemming et al., Cancer Research 79:994-1009 (2019)). Non-commercial cell lines were obtained from the laboratory of Jonathan Fletcher between 2014 and 2016. KIT exons were sequenced to confirm the expected coding mutations and cell identity of GIST cell lines, and cells were thawed from original or derived stocks and used in the described experiments within approximately 3 months. Transfections were performed with X-tremeGene (Roche, Cat #6365809001). Lentiviral production was performed as previously described (Hemming et al., PLOS Biol. 6: e2571-15 (2008)). […]

GIST48B cells = experiment: Growth over time assay in GIST48B (KIT-independent control line); assay type: cell-based, human; conditions: 21-day drug treatment
From the text: as §2

GIST cells [4] = experiment: Cell cycle analysis (propidium iodide, flow cytometry); assay type: cell-based, human; conditions: 8 days treatment; VTP-50469 0.5 μM; combination each drug 0.1 μM
Experimental: Cell cycle and apoptosis. […] Cells were trypsinized, washed in PBS and fixed in 70% ethanol. Propidium iodide at 25 μg/mL (Life Technologies Cat #P1304MP) and RNAse A at 0.2 mg/mL (Thermo Fischer Scientific Cat #EN0531) were used to stain nuclear DNA. Analysis was performed on a Guava easyCyte Flow Cytometer (Luminex Corporation), and single cells were assessed for nuclear content using Guava InCyte software. Apoptosis and cell death were measured following 72 h of drug treatment using Guava Nexin Reagent (Luminex Corporation Cat #4500-0450) per manufacturer's recommendations. Non-apoptotic cells stain negative for Annexin V and 7-AAD, early apoptotic cells stain positive for Annexin V but negative for 7-AAD and late apoptotic and dead cells stain positive for both Annexin V and 7-AAD. Staining was assayed on a Guava easyCyte Flow Cytometer and data analyzed using Guava InCyte software.

Compound: CC(C)N(C(=O)c1cc(F)ccc1Oc1cncnc1N1CC2(CCN(CC3CCC(NS(C)(=O)=O)CC3)CC2)C1)C(C)C (centres unmarked) [VTP-50469, 5-fluoro-N,N-diisopropyl-2-((4-(7-(((1r,4r)-4-(methylsulfonamido)cyclohexyl)methyl)-2,7-diazaspiro[3.5]nonan-2-yl)pyrimidin-5-yl)oxy)benzamide]
- tumor volume relative to baseline ([1]; treatment day 1 (baseline), one value per animal 1-6): 100
- tumor volume relative to baseline ([1]; treatment day 5, one value per animal 1-6): 191 and 172 and 102 and 182 and 68 and 160
- tumor volume relative to baseline ([1]; treatment day 8, one value per animal 1-6): 201 and 188 and 107 and 178 and 67 and 284
- tumor volume relative to baseline ([1]; treatment day 12, one value per animal 1-6): 221 and 290 and 90 and 176 and 59 and 486
- tumor volume relative to baseline ([1]; treatment day 14, one value per animal 1-6): 265 and 356 and 136 and 276 and 73 and 519
- tumor volume relative to baseline ([1]; treatment day 19, one value per animal 1-6): 383 and 399 and 188 and 379 and 43 and 832
- tumor volume relative to baseline ([1]; treatment day 22, one value per animal 1-6): 353 and 440 and 128 and 480 and 71 and 1108
- tumor volume relative to baseline ([1]; treatment day 27, one value per animal 1-6): 622 and 466 and 119 and 735 and 80 and 1469
- tumor volume relative to baseline ([1]; treatment day 29, one value per animal 1-5): 773 and 461 and 153 and 962 and 92
- tumor recovery without further drug treatment ([1]; after 28-day treatment period): regained a tumor growth trajectory similar to the vehicle group
- tumor growth compared to vehicle ([1]; end of 28-day treatment period): significant reductions in tumor growth
- apoptosis and cell death versus DMSO (GIST cells [2]): did not significantly increase apoptosis or cell death
- weight of mice, GIST-T1 xenograft experiment [3]: no weight loss
- weight of mice, PG27 [3]: modest weight loss
- GIST cell proliferation in growth over time assay (GIST-T1 cells): decreased GIST cell proliferation
- proliferation of KIT-independent GIST48B (GIST48B cells): modest or no alterations in proliferation
- cell cycle effect (fraction of cells in G0/G1) (GIST cells [4]): modest increase in the fraction of cells in G0/G1
